Read-outs that look alike come from different tables or passages of the source.
Columns and labels:
M-NFS-60 cells = test: Proliferation of M-NFS-60 cells (CTG assay); type: cell-based, mouse; details: M-NFS-60 (CSF-1 dependent), 3 days
Protocol: (§1) Two syngeneic cell lines M-NFS-60 and RAW264.7 and engineered BaF3 hCSFIR cell line were starved and then tested with CBT-102 and other test articles for 3 days in the temperature of 37° C., 5% CO2 and 95% humidity. The cell viability was then detected using CTG assay. The software of GraphPad Prism was used to calculate IC50.
(§2) CSF-1 dependent mouse myeloid M-NFS-60 cells were employed as target cells while a CSF-1 independent cell line Raw 264.7 was used as a negative control. In addition to CBT-102, the study also included 3 CSF-1R inhibitors: GW2580, BLZ945 and Pexidartinib.

RAW264.7 cells = test: Proliferation of RAW264.7 cells (CTG assay); type: cell-based; details: RAW264.7 (CSF-1 independent, negative control), 3 days
Protocol: as §1, §2

BaF3 hCSF1R cell line = test: Proliferation of engineered BaF3 hCSF1R cell line (CTG assay); type: cell-based
Protocol: as §1, §2

CNC(=O)c1cc(Oc2ccc3nc(N[C@@H]4CCCC[C@H]4O)sc3c2)ccn1 [BLZ945]
Max inh. (M-NFS-60 cells): 99.08% | IC50 (M-NFS-60 cells; Mus musculus, 72 h): 3020 nM | IC50 (RAW264.7 cells; Mus musculus, 72 h): > 30 µM | Max inh. (RAW264.7 cells): 24.65%

COc1ccc(COc2ccc(Cc3cnc(N)nc3N)cc2OC)cc1 [GW2580]
IC50 (M-NFS-60 cells): 1140 nM | Max inh. (M-NFS-60 cells): 99.02% | IC50 (RAW264.7 cells): 4.06 µM | Max inh. (RAW264.7 cells): 81.91% | IC50 (BaF3 hCSF1R cell line; engineered BaF3 hCSF1R, 3 days, CTG, read-out: IC50): 279 nM

FC(F)(F)c1ccc(CNc2ccc(Cc3c[nH]c4ncc(Cl)cc34)cn2)cn1 [PLX3397]
Max inh. (M-NFS-60 cells): 99.32% | IC50 (M-NFS-60 cells; Mus musculus, 72 h): 348 nM | IC50 (RAW264.7 cells; Mus musculus, 72 h): 16.4 µM | Max inh. (RAW264.7 cells): 95.16%

Cc1cc2cc(Oc3ccnc(Nc4cccc(CS(=O)(=O)NCCN(C)C)c4)n3)ccc2[nH]1 [sulfatinib]
IC50 (BaF3 hCSF1R cell line; Mus musculus, BaF3, 72 h): 1330 nM
